In assay [1] the test system is CD4 cells. Put plainly: Follow-up of CD4 cell count in treated HIV-1 infected patients. It is filed as in vivo, human. The protocol:
(§1) Plasma samples were taken from HIV type-1 infected patients and stored at −20° C. until use. Patients were treated with AZT, ddI, ddC, D4T, 3TC, or several combinations of these prodrugs. The European serum samples tested were randomly selected. For the US serum collection, only the first sample from a follow-up series was taken. Some of these US patients were treated, others were not treated.
We selected follow-up samples from three patients and analyzed the viral genotype on the 48 LiPA probes. FIG. 3 illustrates the applicability of genotypic resistance measurement in conjunction with the analysis of viral load and CD4 cell count.

In assay [2] the test system is HIV-1. Description: Follow-up of plasma HIV RNA copy number (viral load, HIV Monitor test) in treated patients. Type of assay: in vivo, human. The protocol: as §1
For cDNA synthesis and PCR amplification, the RNA pellet was dissolved in 15 μl random primers (20 ng/μl, pdN6, Pharmacia), prepared in DEPC-treated or HPLC grade water. After denaturation at 70° C. for 10 minutes, 5 μl cDNA mix was added, composed of 4 μl 5×AMV-RT buffer (250 mM Tris.HCl pH 8.5, 100 mM KCl, 30 mM MgCl2, 25 mM DTT), 0.4 μL 25 mM dXTPs, 0.2 μl or 25U Ribonuclease Inhibitor (HPRI, Amersham), and 0.3 μl or 8U AMV-RT (Stratagene). CDNA synthesis occurred during the 90 minutes incubation at 42° C. The HIV RT gene was then amplified using the following reaction mixture. […] Nested round PCR products were analysed on agarose gel and only clearly visible amplification products were used in the LiPA procedure. Quantification of viral RNA was obtained with the HIV Monitor™test (Roche, Brussels, Belgium).
We selected follow-up samples from three patients and analyzed the viral genotype on the 48 LiPA probes. […]

For `Nc1ccn([C@@H]2CS[C@H](CO)O2)c(=O)n1` [3TC, (−)-β-L-2′,3′-dideoxy-3′-thioCytidine], the CD4 count increase in assay [1] (Patient 94013, 3TC monotherapy from week 2 onwards, highest level at week 10) is reported as about 2.5 fold. Also, in assay [2] (Patient 94013, 3TC monotherapy from week 2 onwards), the Viral load decrease was found to be 3 log units.
With `Cc1cn([C@H]2C[C@H](N=[N+]=[N-])[C@@H](CO)O2)c(=O)[nH]c1=O` [AZT, 3′-azido-2′,3′-dideoxyThymidine], the “Change in CD4 count” value in assay [1] (Patient 92021, AZT monotherapy from week 10, peak at week 21) is given as “initially increased”. Further, in assay [2] (Patient 92021, ten weeks of AZT treatment (from week 10), values of week 16 and 19), the “Effect on viral load” value was “did not result in a drop in viral load”.

These data come from US6713251B2, “Method for detection of drug-induced mutations in the reverse transcriptase gene” (Innogenetics N.V., priority 1996, dated 2004).
